Literature values as cited in patent US6096864A, “Peptides for use in wound treatment” (Johnson & Johnson Medical, Ltd., priority 1998, dated 2000).

System: human fibroblast
Conditions: concentration range 2.5 mM to 25 mM

Gly-Pro-Ala
chemotactic activity: no chemotactic activity
